Assay results taken from patent publication US20250102494A1, “COMPOSITION FOR PREDICTING OXALIPLATIN DRUG EFFICACY, AND USE THEREOF” (SAMSUNG LIFE PUBLIC WELFARE FOUNDATION, priority 2022, published 2025).
Like-named read-outs stand apart in the source and are kept apart here.

What was measured:
Format in all cases: cell-based
[1] = tested on: HCT116 cells; assay: ATPlite cell viability after drug treatment, HCT116 cells in cell-line or organoid culture media; parameters: AUC 1st / AUC 2nd / AUC 3rd / AUC Average: unit not given here
Protocol: (§1) Advanced DMEM/F12+++ (hereinafter referred to as “Ad/DF+++”) was used to produce colorectal cancer organoids. Ad/DF+++ was refrigerated at 4° C. until use, and was used in a cold state during cell washing. Ad/DF+++ medium containing the reagents shown in Table 1 below along with Ad/DF 1× (Gibco) was prepared.
(§2) After preparing the Ad/DF+++ medium containing the above reagents, an appropriate amount of Matrigel (Corning #356231) was added so that the ratio between Matrigel and cells suspended in the Ad/DF+++ medium was 7:3. Then, the cells were plated on low attachment well plates at an appropriate density. The density and the type and number of well plates were determined according to the characteristics of each cell type. The medium was prepared according to the composition shown in Table 2 below, and the cells were cultured (expanded) until the required level was reached while the medium was replaced every 3 to 4 days.
If the organoids were expanded as needed for the experiment, the medium was carefully removed, taking care not to touch the Matrigel. The cells were separated from the Matrigel by pipetting about 20 times with 1 ml of cold Ad/DF+++. The cells in 1 to 4 wells per 6-well plate were collected in one 50 ml tube. If cells are collected from more than 4 wells into one tube, the Metrigel may not be washed properly. For this reason, the cells were placed in several tubes. Thereafter, Ad/DF+++ was poured to 20 to 50 ml of each tube, followed by centrifugation at 400 g for 3 minutes at 4° C. The cells were dissociated with 1 to 2 mL of TrypLE™ Express Enzyme (Gibco, 1264-013), transferred to low-attachment 24 well plates, and then treated with 10 μM of Y-27632. Next, the cells were cultured in a CO2 incubator for 5 minutes at 37° C. After pipetting about 20 times, whether the cells would be dissociated into single cells was checked by microscopic observation. If the cells were not dissociated into single cells, the culture under CO2 and pipetting processes were repeated. After the single cells were transferred into 15-ml tubes, Ad/DF+++ was filled to 10 to 15 ml of each tube, followed by centrifugation at 400 g at 4° C. for 3 minutes. After suspending the pellet in Ad/DF+++, the cells were counted and diluted with medium according to the required number of cells.
12 hours after seeding in Experimental Example 1-2 above, the medium was changed with the medium shown in Table 3 below, followed by culturing to produce organoids.
(§3) Four hours after the medium change, the cells were treated with oxaliplatin, 5-FU, Irinotecan, and folinic acid. Five days after drug treatment, intracellular ATP expression was determined using the ATPlite assay kit (PerkinElmer), and the data were expressed in terms of cell viability, IC50, and AUC.
As the standard for confirming that cells are sensitive to the drug, the response of the cells to the drug was assumed to be 100%, and the luminescence value of surviving cells after drug treatment was analyzed and compared with the quantified drug response value.
Based on the assumption that the factor that increases the resistance of the organoids to oxaliplatin is an activator or inhibitor that changes the phenotype, the organoids prepared by excluding some or all of activators and inhibitors as shown in Table 4 below were treated with oxaliplatin.
In order to identify the factors that reduce the resistance to oxaliplatin of the Ex2 organoid, activators or inhibitors that change the phenotype were added one by one to the Ex2 organoid composition, thus producing organoids as shown in Table 8 below. Then, it was checked whether the produced organoids had increased resistance to oxaliplatin.

[2] = tested on: LS147T cells; assay: ATPlite cell viability after oxaliplatin, LS147T cells in organoid culture media
Protocol: as §1, §2
If the organoids were expanded as needed for the experiment, the medium was carefully removed, taking care not to touch the Matrigel. The cells were separated from the Matrigel by pipetting about 20 times with 1 ml of cold Ad/DF+++. The cells in 1 to 4 wells per 6-well plate were collected in one 50 ml tube. If cells are collected from more than 4 wells into one tube, the Metrigel may not be washed properly. For this reason, the cells were placed in several tubes. […] After suspending the pellet in Ad/DF+++, the cells were counted and diluted with medium according to the required number of cells. […]
as §3
As the standard for confirming that cells are sensitive to the drug, the response of the cells to the drug was assumed to be 100%, and the luminescence value of surviving cells after drug treatment was analyzed and compared with the quantified drug response value. […]

[3] = tested on: HT29 cells; assay: ATPlite cell viability after oxaliplatin, HT29 cells in organoid culture media
Protocol: as §1
(§4) After preparing the Ad/DF+++ medium containing the above reagents, an appropriate amount of Matrigel (Corning #356231) was added so that the ratio between Matrigel and cells suspended in the Ad/DF+++ medium was 7:3. Then, the cells were plated on low attachment well plates at an appropriate density. The density and the type and number of well plates were determined according to the characteristics of each cell type. […]
(§5) If the organoids were expanded as needed for the experiment, the medium was carefully removed, taking care not to touch the Matrigel. […] After suspending the pellet in Ad/DF+++, the cells were counted and diluted with medium according to the required number of cells. […]
(§6) Four hours after the medium change, the cells were treated with oxaliplatin, 5-FU, Irinotecan, and folinic acid. Five days after drug treatment, intracellular ATP expression was determined using the ATPlite assay kit (PerkinElmer), and the data were expressed in terms of cell viability, IC50, and AUC. […]

[4] = tested on: CoLo205 cells; assay: ATPlite cell viability after oxaliplatin, CoLo205 cells in organoid culture media; details: FIG. 19
Protocol: as §1, §4, §5, §6

[5] = tested on: LoVo cells; assay: ATPlite cell viability after oxaliplatin, LoVo cells in organoid culture media
Protocol: as §1, §4, §5, §6

## O=C1[O][Pt]2([NH][C@@H]3CCCC[C@H]3[NH]2)[O]C1=O [oxaliplatin]
[1]; HCT116 in Ex2-3, 3rd, read-out: IC50 (μM) 3rd
  IC50: 18.2 µM
[1]; HCT116 in Ex2-3, average
  AUC Average: 312.3
[1]; HCT116 in Ex2-3, average, read-out: IC50 (μM) Average
  IC50: 37.3 µM
[1]; HCT116 in Ex2-4 (Ex2 + Wnt3a), 1st
  AUC 1st: 258.2
[1]; HCT116 in Ex2-4 (Ex2 + Wnt3a), 1st, read-out: IC50 (μM) 1st
  IC50: 5.9 µM
[1]; HCT116 in Ex2-4, 2nd
  AUC 2nd: 304.7
[1]; HCT116 in Ex2-4, 2nd, read-out: IC50 (μM) 2nd
  IC50: 38.8 µM
[1]; HCT116 in Ex2-4, 3rd
  AUC 3rd: 315.9
[1]; HCT116 in Ex2-4, 3rd, read-out: IC50 (μM) 3rd
  IC50: 26.9 µM
[1]; HCT116 in Ex2-4, average
  AUC Average: 292.9
[1]; HCT116 in Ex2-4, average, read-out: IC50 (μM) Average
  IC50: 23.8 µM
[1]; HCT116 in Ex2-5 (Ex2 + R-spondin 1 1 μg/ml), 1st
  AUC 1st: 317.5
[1]; HCT116 in Ex2-5 (Ex2 + R-spondin 1 1 μg/ml), 1st, read-out: IC50 (μM) 1st
  IC50: 34 µM
[1]; HCT116 in Ex2-5, 2nd
  AUC 2nd: 322.7
[1]; HCT116 in Ex2-5, 2nd, read-out: IC50 (μM) 2nd
  IC50: 43 µM
[1]; HCT116 in Ex2-5, 3rd
  AUC 3rd: 351.6
[1]; HCT116 in Ex2-5, 3rd, read-out: IC50 (μM) 3rd
  IC50: 103 µM
[1]; HCT116 in Ex2-5, average
  AUC Average: 330.6
[1]; HCT116 in Ex2-5, average, read-out: IC50 (μM) Average
  IC50: 60 µM
[1]; HCT116 in Ex2-6 (Ex2 + Noggin 100 ng/ml), 1st
  AUC 1st: 264.3
[1]; HCT116 in Ex2-6 (Ex2 + Noggin 100 ng/ml), 1st, read-out: IC50 (μM) 1st
  IC50: 7.8 µM
[1]; HCT116 in Ex2-6, 2nd
  AUC 2nd: 309.4
[1]; HCT116 in Ex2-6, 2nd, read-out: IC50 (μM) 2nd
  IC50: 41.4 µM
[1]; HCT116 in Ex2-6, 3rd
  AUC 3rd: 292.6
[1]; HCT116 in Ex2-6, 3rd, read-out: IC50 (μM) 3rd
  IC50: 22.1 µM
[1]; HCT116 in Ex2-6, average
  AUC Average: 288.8
[1]; HCT116 in Ex2-6, average, read-out: IC50 (μM) Average
  IC50: 23.8 µM
[1]; HCT116 in Ex2, 2nd
  AUC 2nd: 324.8
[1]; HCT116 in Ex2, 2nd, read-out: IC50 (μM) 2nd
  IC50: 46.1 µM
[1]; HCT116 in Ex2, 3rd
  AUC 3rd: 331.7
[1]; HCT116 in Ex2, 3rd, read-out: IC50 (μM) 3rd
  IC50: 40.5 µM
[1]; HCT116 in Ex2, average
  AUC Average: 325.4
[1]; HCT116 in Ex2, average, read-out: IC50 (μM) Average
  IC50: 38.1 µM
[1]; HCT-116, FIG. 2
  drug response, colorectal cancer cell line compared with cells under Ex1 organoid culture conditions: increased resistance under the organoid culture conditions
[1]; HCT-116, FIG. 25
  drug responsiveness, colorectal cancer cell line compared with organoids cultured in Ex1 and Ex2: oxaliplatin resistance decreased in Ex2
[2]; FIG. 12
  AUC value, Ex2 compared with other organoid culture conditions: lower in the organoid culture conditions of Ex2
  AUC value, Ex3 and Ex4 compared with Ex1: no difference in AUC values from Ex1
[2]; FIG. 13
  IC50 value, Ex2 compared with Ex1: higher in Ex2 than in Ex1
[3]; HT29, FIG. 15
  AUC value, Ex1 to Ex4 compared: Ex1 to Ex3 showed similar AUC values, but Ex4 showed slightly lower AUC values than Ex1 to Ex3
[3]; HT29 cell line and Ex1 to Ex4, FIG. 16
  cell viability versus oxaliplatin concentration: did not decrease under all the culture conditions
[4]
  AUC values of Ex2 to Ex4 compared with Ex1: higher than that of Ex1
[5]; LoVo organoids, log [oxaliplatin] values approaching 2, FIG. 22
  cell viability: ≥ 50%
[5]; LoVo, FIG. 21
  AUC values of Ex2 to Ex4 compared with Ex1: higher than that of Ex1
